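Grown in 96-well plates, cells were treated for 48 hours with each compound at five concentrations. Insufficient inhibition: endpoint recorded as highest concentration tested. GI50 is the concentration that inhibits growth by half. TGI is the concentration that stops growth completely.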
System: OVCAR-3 ovarian
Assay: DTP human tumour cell line panel, 48 h

Row | Compound | TGI [µM] | GI50 [µM]
1 | COCCN1C(=O)C2c3[nH]c4ccccc4c3C3CCC(C(C)(C)C)CC3C2C1=O (stereo not given) | 33.8 | –
2 | O=C(O)c1ccc(N/C(=C(/C(Cl)=C(Cl)Cl)[N+](=O)[O-])n2nnc3ccccc32)cc1 | > 100 | –
3 | CCn1c2ccccc2c2cc(Nc3cc(C)[nH]c(=O)n3)ccc21 | > 100 | –
4 | C(#Cc1ccccc1)SC1=C(c2ccccc2)S/C(=C(\SC#Cc2ccccc2)c2ccccc2)S1 | > 100 | –
5 | COC(=O)c1cc(/C=C\c2cc(OC)ccc2OC)ccc1OC | 65.8 | –
6 | Cc1ccc(S(=NS(=O)(=O)c2ccc(C)cc2)c2ccc(C)cc2)cc1 | > 100 | –
7 | CCOC(=O)C(C(=O)COC(C)(C)C)[C@@H]1C=C[C@H](OC(C)=O)C1 (stereo not given in full) | > 100 | –
8 | CCOC(=O)CC(NC(=O)c1ccc(N=NN(C)C)cc1)C(=O)OCC (stereo not given) | > 100 | –
9 | CN(C)CN(C)c1nc(N(C)C)nc(N(C)CN(C)C)n1 | > 100 | –
10 | O=C(Cc1ccccc1)NN1C(=O)/C(=C\c2ccccc2O)SC1=Nc1ccccc1 | > 100 | –
11 | O=c1[nH]nc(-c2ccccc2)n1-n1cnnc1 | > 100 | –
12 | CCCCCCCCCCCCOP(=O)(O)OP(=O)(O)OCC1OC(n2cc(C)c(=O)[nH]c2=O)CC1O (stereo not given) | > 100 | –
13 | CCOc1cc2c(cc1O)C(N)C[C@@H]1[C@@H]2CC[C@]2(C)[C@@H](O)CC[C@@H]12 (stereo not given in full) | > 100 | 44.9
14 | CC(C)[Si](OCC1CC(C#N)OC(C)(C)O1)(C(C)C)C(C)C (stereo not given) | 29.4 | –
15 | CC(C)C(NC(=O)C(Cc1ccccc1)NC(=O)[C@H]1CCC[C@H]1NC(=O)C(Cc1ccc(OC(C)(C)C)cc1)NC(=O)OC(C)(C)C)C(N)=O (stereo not given in full) | 69.3 | –
16 | N#C/C(=C\c1ccc2[nH]ccc2c1)C(=O)c1ccc(O)c(O)c1 | 79.3 | –
17 | CC(=O)Nc1ccc(-c2nnc(SCC(=O)Nc3ccc(Cl)cc3)o2)cc1 | 31.1 | –
18 | COc1ccc2c([nH]c3c(O)c(-c4c(C)cc5c([nH]c6c(CC=C(C)C)c(OC)ccc65)c4O)c(C)cc32)c1CC=C(C)C | > 100 | –
19 | COc1ccc(CNc2nc3ccccc3nc2C(=O)O)cc1 | > 100 | –
20 | COc1ccc(-n2cnc3c(NC(Cc4ccccc4)C(=O)O)ncnc32)cc1 (stereo not given) | > 100 | –
21 | CC(=O)OCC1OC(n2c(-c3ccccc3)c(N=Nc3ccc(C)cc3)c(C)c(C#N)c2=S)C(OC(C)=O)C(OC(C)=O)C1OC(C)=O (stereo not given) | 64.7 | –
22 | CC(C)(C)C1=C(Br)C(OC(=O)C(F)(F)F)(C(C)(C)C)OP1(=O)c1ccccc1 (stereo not given) | > 100 | –
23 | NN/C(=N\S(=O)(=O)c1ccc(S(=O)(=O)c2ccccc2)s1)Nc1ccc(Cl)cc1 | 72.2 | –
24 | CC(C)(C)[Si](C)(C)OC[C@H](/C=C\CCCC(=O)O)NC1(c2ccccc2)c2ccccc2-c2ccccc21 | 36.1 | –
25 | CCOC(=O)C(C/C=C/CO)N(C)C(=O)OC(C)(C)C (stereo not given) | > 100 | –
26 | Cc1csc(-n2c(C)nc3cc(Cl)ccc3c2=O)n1 | > 100 | –

System: K-562 leukemia
Assay: DTP human tumour cell line panel, 48 h

Row | Compound | TGI [µM]
27 | COCCN1C(=O)C2c3[nH]c4ccccc4c3C3CCC(C(C)(C)C)CC3C2C1=O (stereo not given) | > 100
28 | O=C(O)c1ccc(N/C(=C(/C(Cl)=C(Cl)Cl)[N+](=O)[O-])n2nnc3ccccc32)cc1 | > 100
29 | O=c1c2ccccc2nc(-c2ccccc2)n1NC(=S)Nc1cccc(Cl)c1 | > 100
30 | CCn1c2ccccc2c2cc(Nc3cc(C)[nH]c(=O)n3)ccc21 | > 100
31 | C(#Cc1ccccc1)SC1=C(c2ccccc2)S/C(=C(\SC#Cc2ccccc2)c2ccccc2)S1 | > 100
32 | COC(=O)c1cc(/C=C\c2cc(OC)ccc2OC)ccc1OC | 86
33 | Cc1ccc(S(=NS(=O)(=O)c2ccc(C)cc2)c2ccc(C)cc2)cc1 | > 100
34 | CCOC(=O)C(C(=O)COC(C)(C)C)[C@@H]1C=C[C@H](OC(C)=O)C1 (stereo not given in full) | > 100
35 | CCOC(=O)CC(NC(=O)c1ccc(N=NN(C)C)cc1)C(=O)OCC (stereo not given) | > 100
36 | CN(C)CN(C)c1nc(N(C)C)nc(N(C)CN(C)C)n1 | 67.3
37 | O=c1[nH]nc(-c2ccccc2)n1-n1cnnc1 | > 100
38 | CCCCCCCCCCCCOP(=O)(O)OP(=O)(O)OCC1OC(n2cc(C)c(=O)[nH]c2=O)CC1O (stereo not given) | > 100
39 | O=C1c2cc([N+](=O)[O-])sc2C(=O)c2c([N+](=O)[O-])csc21 | 0.399
40 | CCOc1cc2c(cc1O)C(N)C[C@@H]1[C@@H]2CC[C@]2(C)[C@@H](O)CC[C@@H]12 (stereo not given in full) | 73.2
41 | Cc1ccc(S(=O)(=O)Nn2c(O)c(C#N)c(-c3ccc([N+](=O)[O-])cc3)c(C#N)c2=O)cc1 | > 100
42 | CC(C)[Si](OCC1CC(C#N)OC(C)(C)O1)(C(C)C)C(C)C (stereo not given) | 37.9
43 | CC(C)C(NC(=O)C(Cc1ccccc1)NC(=O)[C@H]1CCC[C@H]1NC(=O)C(Cc1ccc(OC(C)(C)C)cc1)NC(=O)OC(C)(C)C)C(N)=O (stereo not given in full) | 44.4
44 | N#C/C(=C\c1ccc2[nH]ccc2c1)C(=O)c1ccc(O)c(O)c1 | > 100
45 | CC(=O)Nc1ccc(-c2nnc(SCC(=O)Nc3ccc(Cl)cc3)o2)cc1 | > 100
46 | COc1ccc2c([nH]c3c(O)c(-c4c(C)cc5c([nH]c6c(CC=C(C)C)c(OC)ccc65)c4O)c(C)cc32)c1CC=C(C)C | > 100
47 | COc1ccc(CNc2nc3ccccc3nc2C(=O)O)cc1 | > 100
48 | COc1ccc(-n2cnc3c(NC(Cc4ccccc4)C(=O)O)ncnc32)cc1 (stereo not given) | > 100
49 | CC(=O)OCC1OC(n2c(-c3ccccc3)c(N=Nc3ccc(C)cc3)c(C)c(C#N)c2=S)C(OC(C)=O)C(OC(C)=O)C1OC(C)=O (stereo not given) | > 100
50 | CC(C)(C)C1=C(Br)C(OC(=O)C(F)(F)F)(C(C)(C)C)OP1(=O)c1ccccc1 (stereo not given) | > 100
51 | NN/C(=N\S(=O)(=O)c1ccc(S(=O)(=O)c2ccccc2)s1)Nc1ccc(Cl)cc1 | > 100
52 | CC(C)(C)[Si](C)(C)OC[C@H](/C=C\CCCC(=O)O)NC1(c2ccccc2)c2ccccc2-c2ccccc21 | 45.5
53 | CCOC(=O)C(C/C=C/CO)N(C)C(=O)OC(C)(C)C (stereo not given) | > 100
54 | Cc1csc(-n2c(C)nc3cc(Cl)ccc3c2=O)n1 | > 100
